Experimental data taken from BindingDB's records for doi:10.7270/Q2BC3WXH (University of Dundee, 2010).

Target: Carbonic anhydrase 2 (Bos taurus, UniProt P00921)
Assay: SPR biosensor assay Biacore T100
Settings: 25 °C; for kon: pH 7.4, read-out: kon (M-1-s-1); for Kd: pH 7.4
Text: SPR biosensor assay Biacore T100

Sequence of Carbonic anhydrase 2 (P00921 whole entry): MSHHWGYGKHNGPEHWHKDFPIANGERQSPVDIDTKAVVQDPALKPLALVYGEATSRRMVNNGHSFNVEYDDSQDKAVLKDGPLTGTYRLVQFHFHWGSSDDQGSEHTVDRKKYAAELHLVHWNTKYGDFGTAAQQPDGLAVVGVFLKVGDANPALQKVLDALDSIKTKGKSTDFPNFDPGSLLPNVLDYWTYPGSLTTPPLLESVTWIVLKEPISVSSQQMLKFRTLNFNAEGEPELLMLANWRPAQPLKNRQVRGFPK

SMILES	kon [M⁻¹ s⁻¹]	Kd [nM]	koff (pH 7.4, read-out: koff (s-1)) [s⁻¹]
O=C1NNS(=O)(=O)c2ccccc21 [1,4-dioxo-1,2,3,4-tetrahydro-1,2,3-benzothiadiazin-1-ium-1-olate]	1.94e+06	38900	
Cn1cnc(S(N)(=O)=O)c1 [1-methyl-1H-imidazole-4-sulfonamide]	164000	35300	4.65
NS(=O)(=O)c1ccc2c(c1)OCCO2 [2,3-dihydro-1,4-benzodioxine-6-sulfonamide]	109000	817	
NS(=O)(=O)c1ccc2c(c1)CCN2 [2,3-dihydro-1H-indole-5-sulfonamide]	58500	3110	
NS(=O)(=O)c1ccc(F)cc1F [2,4-difluorobenzene-1-sulfonamide]	107000	394	
Nc1nc2ccc(S(N)(=O)=O)cc2s1 [2-amino-1,3-benzothiazole-6-sulfonamide]	19600	383	
Cc1ccccc1S(N)(=O)=O [2-methylbenzene-1-sulfonamide]	240000	2180	
CCCn1c(=O)[nH]c2cc(S(N)(=O)=O)ccc21 [2-oxo-1-propyl-2,3-dihydro-1H-1,3-benzodiazole-5-sulfonamide]	93500	197	
NS(=O)(=O)c1cc(Cl)cc(Cl)c1 [3,5-dichlorobenzene-1-sulfonamide]	259000	287	
Cc1c(Cl)cc(F)cc1S(N)(=O)=O [3-chloro-5-fluoro-2-methylbenzene-1-sulfonamide]	76300	96.8	
Nc1ccc(S(N)(=O)=O)cn1 [6-aminopyridine-3-sulfonamide]	203000	10800	
